Measurements published in US6159733A, “Method for photoinactivating malignant cells” (priority 1996, dated 2000).

Assays:
[1] = test system: multidrug resistance (mdr) pump; assay: Uptake of Pc 4 by BM in presence of verapamil
Description: Uptake of Pc 4. Following a two hour incubation at 37° C. with 15 nM Pc 4, cell line and BM samples were analyzed for Pc 4 uptake by flow cytometry. BM samples were first incubated with anti-c-kit^PE (Pharmingen) and anti-Sca-1^FITC (Pharmingen), to allow analysis of the Pc 4 uptake in the committed progenitor fraction (c-kit^+,Sca-1^-) and the pluripotent stem cell fraction (c-kit^+,Sca-1^+) (Li, C. L. and G. R. Johnson Blood 85:1472 (1995)). Following a 20 minute incubation on ice, and two subsequent washes, the samples were incubated with 15 nM Pc 4. The relative Pc 4 uptake was calculated by subtracting the mean fluorescence signals of the untreated control samples from the mean Pc 4 fluorescence signals.

L1210 cells = assay: Photoinactivation of cell line, colony forming assay; assay type: cell-based, murine; settings: for fluence for photoinactivation to below the detection levels: 15 nM
Description: (§1) Cell lines and culture conditions. WEHI-3 (murine myelocytic leukemia), L1210 (murine lymphocytic leukemia) and P815 (murine mastocytoma) cells were grown in RPMI 1640 (GibcoBRL, Grand Island, N.Y.) supplemented with 10% FBS. BC3A (murine leukemia) cells were grown in RPMI 1640 supplemented with 10 μM β-mercaptoethanol and 10% FBS; ABE-8.1/2 (murine pre-B lymphoma) cells were grown in DMEM (GibcoBRL)--10 μM β-mercaptoethanol--10% FBS. All cell lines were obtained from the American Type Culture Collection (Rockville, Md.) and were cultured at 37° C. in a humidified 5% CO2 -incubator. Prior to incubation with Pc 4, the cell lines were centrifuged and resuspended in phosphate buffered saline (PBS)--10% FBS, pH 7.4.
(§2) Photosensitization. Aliquots of a 1.87 mM Pc 4 (kindly provided by Dr. M. E. Kenney) stock solution in dimethyl sulfoxide were kept at -80° C. in autoclaved brown glass vials. Immediately prior to the photosensitization, Pc4 was thawed and diluted in dimethyl formamide to yield a 10 μM working solution. […] Pc 4 was used at 15 nM throughout the experiments.
(§3) BM and cell line samples, were incubated with 15 nM Pc 4 for two hours at 37° C. at cell concentrations of 1.5×10^7 cells/mL. Aliquots of 1.5 mL were transferred to 24-well plates; separate plates were used for each sample.
(§4) In a second set of experiments, the cells were incubated with 15 nM Pc 4 at cell concentrations of 1.5×10^6 cells/mL. Prior to photoirradiation, the samples were centrifuged and the supernatants were aspirated and set aside. The cell concentrations were adjusted to 1.5×10^7 cells/mL by adding back an appropriate volume of the Pc 4 containing aspirates.
(§5) Photoinactivation. The light source used was a filtered xenon short arc lamp (Versa-Light, Model UV-R6G, Medic Lightech, Ltd., Haifa, Israel). It was used to deliver red light (λ 600-700 nm) to the sensitized cells. After a 20 minute warm up period of the instrument, the distance from the light source to the bottom of the 24-well plate was adjusted to obtain a fluence rate of 26.6 mW/cm^2, as measured with a radiometer (Model IL 1350, International Light, Newburyport, Mass.). Samples were placed under the light source and were stirred during the irradiations. Before and after the irradiations, samples were kept in the dark.
(§6) Cell line samples were plated (in triplicate) in a semi-solid medium which consisted of DMEM--20% vol/vol serum (2/3 horse serum, 1/3 FBS)--3 mM glutamine--60 μM β-mercaptoethanol--0.3% wt/vol agar. The samples were incubated at 37° C. in a humidified 5% CO2 -incubator, and colonies consisting of more than 50 cells were counted after nine days.
(§7) Statistics. All assays were performed in triplicate unless mentioned otherwise. Data are expressed as mean values±standard error of the mean (SEM). Survival data are presented as surviving fractions relative to the surviving fractions of the untreated controls. The significance of the differences between experimental values was assessed by means of the Student's t-test.

BC3A cells = assay: as above; assay type: cell-based, murine; settings: for fluence for photoinactivation to below the detection levels: 15 nM
Description: as §1, §2, §3, §4, §5, §6, §7

WEHI-3 cells = assay: as above; assay type: cell-based, murine
Description: as §1, §2, §3, §4, §5, §6, §7

ABE-8.1/2 cells = assay: as above; assay type: cell-based, murine; settings: for fluence for photoinactivation to below the detection levels: 15 nM
Description: as §1, §2, §3, §4, §5, §6, §7

P815 cells = assay: as above; assay type: cell-based, murine
Description: as §1, §2, §3, §4, §5, §6, §7

BFU-E = settings: 15 nM Pc 4, 5×10^6 cells/mL, 8 J/cm^2; cited from earlier work
SK-BR3 = settings: 15 nM Pc 4, 5×10^6 cells/mL, 8 J/cm^2; cited from earlier work
HL-60 = settings: 15 nM Pc 4, 5×10^6 cells/mL, 8 J/cm^2; cited from earlier work

CN(C)CCC[Si](C)(C)O[Si]1(O)n2c3c4ccccc4c2N=C2N=C(N=c4c5ccccc5c(n41)=NC1=NC(=N3)c3ccccc31)c1ccccc12 (centres unmarked) [Pc 4, hydroxysiloxy-dimethylpropyl-N-dimethyl silicon phthalocyanine]
effect of verapamil on uptake of Pc 4 ([1]; BM samples, verapamil during incubation): did not increase the uptake
comparison with BPD-DA and benzochlorin ([1]; application with samples containing mdr^+ leukemic cells): compared favorable to BPD-DA
substrate of the multidrug resistance pump ([1]; murine pluripotent stem cells): not a substrate
fluence for photoinactivation to below the detection levels (L1210 cells; 1.5×10^6 cells/mL): 6 J/cm^2
fluence for photoinactivation to below the detection levels (L1210 cells; 1.5×10^7 cells/mL): 18 J/cm^2
selectivity of photoinactivation towards the cell line (L1210 cells; 1.5×10^6 cells/mL): < 1 log10
selective photoinactivation (L1210 cells; 1.5×10^7 cells/mL, 18 J/cm^2): > 6 log10
fluence for photoinactivation to below the detection levels (BC3A cells; 1.5×10^6 cells/mL): 6 J/cm^2
fluence for photoinactivation to below the detection levels (BC3A cells; 1.5×10^7 cells/mL): 12 J/cm^2
selectivity of photoinactivation towards the cell line (BC3A cells; 1.5×10^6 cells/mL): approximately 5 log10
selective photoinactivation (BC3A cells; 1.5×10^7 cells/mL, 18 J/cm^2): > 6 log10
fluence for photoinactivation to below the detection levels (WEHI-3 cells; 15 nM, 1.5×10^6 cells/mL): 12 J/cm^2
selectivity of photoinactivation towards the cell line (WEHI-3 cells; 1.5×10^6 cells/mL): ~4 log10
selective photoinactivation (WEHI-3 cells; 1.5×10^7 cells/mL, 18 J/cm^2): 5 log10
viability at 0.015 µM (WEHI-3 cells; Mus musculus, WEHI-3, light or radiation study, read-out: surviving fraction): 0.00038%
fluence for photoinactivation to below the detection levels (ABE-8.1/2 cells; 1.5×10^6 cells/mL): 3 J/cm^2
fluence for photoinactivation to below the detection levels (ABE-8.1/2 cells; 1.5×10^7 cells/mL): 12 J/cm^2
selectivity of photoinactivation towards the cell line (ABE-8.1/2 cells; 1.5×10^6 cells/mL): approximately 5 log10
selective photoinactivation (ABE-8.1/2 cells; 1.5×10^7 cells/mL, 18 J/cm^2): > 6 log10
fluence for photoinactivation to below the detection levels (P815 cells; 15 nM, 1.5×10^6 cells/mL): 6 J/cm^2
selectivity of photoinactivation towards the cell line (P815 cells; 1.5×10^6 cells/mL): ~3 logs
selective photoinactivation (P815 cells; 1.5×10^7 cells/mL, 18 J/cm^2): > 3 log10
viability at 0.015 µM (P815 cells; Mus musculus, P815, light or radiation study, read-out: surviving fraction): 0.053 ± 2.6e-06%
surviving fraction of human cells (BFU-E): 0.9
surviving fraction of human cells (SK-BR3): < 10^-5
surviving fraction of human cells (HL-60): < 10^-5
